According to US20250059207A1, “6,6-FUSED HETEROCYCLIC COMPOUNDS AS METTL3 INHIBITORS” (858 Therapeutics, Inc., priority 2021, published 2025):
Where two headings read alike, the source gives them in different places.

Tested on: MOLM-13 cells
Test: Viability assay in MOLM-13 cells (CellTiter-Glo 2.0)
Type: cell-based, human
Settings: read-out: MOLM-13 IC50 (cell viability)
[1] = MOLM-13 human AML cells, 72 hours, CellTiter-Glo 2.0

Procedure: Effects of test compounds on the proliferation and viability of human AML cells was evaluated using the MOLM-13 cell line (AddexBio Technologies cat. no. C0003003). […] Test compounds or controls (Bortezomib or DMSO) diluted in 2% DMSO/media were added to each well for final concentrations of 0.2% DMSO and 0.1-1 μM Bortezomib. The cells were incubated for 72 hours at 37° C. and 5% CO2. At the end of the 72 hour incubation, plates were removed from the incubator, cooled to room temperature and equal volume of CellTiter-Glo 2.0 (Promega) added to each well. After mixing and incubating the plate at room temperature for 10 minutes the luminescence was read using a plate reader. […] Concentration-response-curves and IC50 values were generated using Collaborative Drug Discovery software.

Row | SMILES | IC50 [1] [µM] | IC50 (Homo sapiens, MOLM-13, 72 h) [µM]
1 | O=c1c2cnccc2ccn1Cc1cn2cc(CNCC3CCCCC3)ccc2n1 [Compound 71, 2-((6-(((cyclohexylmethyl)amino)methyl)imidazo[1,2-a]pyridin-2-yl)methyl)-2,7-naphthyridin-1(2H)-one] | > 10 | 
2 | O=c1c2cncc(-c3ccccc3)c2ccn1Cc1cn2cc(CNCC3(O)CCC3)ccc2n1 [Compound 74, 2-((6-((((1-hydroxycyclobutyl)methyl)amino)methyl)imidazo[1,2-a]pyridin-2-yl)methyl)-5-phenyl-2,7-naphthyridin-1(2H)-one] | > 10 | 
3 | O=c1c2cncc(-c3ccccc3)c2ccn1Cc1cn2cc(CNCC3(F)CCC3)ccc2n1 [Compound 75, 2-((6-((((1-fluorocyclobutyl)methyl)amino)methyl)imidazo[1,2-a]pyridin-2-yl)methyl)-5-phenyl-2,7-naphthyridin-1(2H)-one] | > 10 | 
4 | O=c1c2cncc(-c3ccccc3)c2ccn1Cc1cn2cc(CNC3(c4ccccc4)CC3)ccc2n1 [Compound 78, 5-phenyl-2-((6-(((1-phenylcyclopropyl)amino)methyl)imidazo[1,2-a]pyridin-2-yl)methyl)-2,7-naphthyridin-1(2H)-one] |  | 1 to 10
5 | O=c1c2cncc(-c3ccccc3)c2ccn1Cc1cn2cc(CNCc3ccc(Cl)cc3)ccc2n1 [Compound 84, 2-((6-(((4-chlorobenzyl)amino)methyl)imidazo[1,2-a]pyridin-2-yl)methyl)-5-phenyl-2,7-naphthyridin-1(2H)-one] |  | 1 to 10
6 | CNc1ccc2ccc(-c3ccc(Cn4ccc5c(-c6ccccc6)cncc5c4=O)cc3)cc2n1 [Compound 94, 2-(4-(2-(methylamino)quinolin-7-yl)benzyl)-5-phenyl-2,7-naphthyridin-1(2H)-one] | 1 to 10 | 
7 | O=c1c2cncc(-c3ccccc3)c2ccn1Cc1cn2cc(CNc3cc(NCCCCl)ccn3)ccc2n1 [Compound 96, 2-((6-(((4-((3-chloropropyl)amino)pyridin-2-yl)amino)methyl)imidazo [1,2-a]pyridin-2-yl)methyl)-5-phenyl-2,7-naphthyridin-1(2H)-one] | 1 to 10 | 
8 | COCCNc1ccnc(NCc2ccc3nc(Cn4ccc5c(-c6ccccc6)cncc5c4=O)cn3c2)c1 [Compound 99, 2-((6-(((4-((2-methoxyethyl)amino)pyridin-2-yl)amino)methyl)imidazo[1,2-a]pyridin-2-yl)methyl)-5-phenyl-2,7-naphthyridin-1(2H)-one] |  | > 10
9 | O=c1c2cncc(-c3ccccc3)c2ccn1Cc1cn2cc(CNc3ccccn3)ccc2n1 [Compound 100, 5-phenyl-2-((6-((pyridin-2-ylamino)methyl)imidazo[1,2-a]pyridin-2-yl)methyl)-2,7-naphthyridin-1(2H)-one] | 1 to 10 | 
10 | COc1ccnc(NCc2ccc3nc(Cn4ccc5c(-c6ccccc6)cncc5c4=O)cn3c2)c1 [Compound 101, 2-((6-(((4-methoxypyndin-2-yl)amino)methyl)imidazo[1,2-a]pyridin-2-yl)methyl)-5-phenyl-2,7-naphthyridin-1(2H)-one] | 1 to 10 | 
11 | O=c1c2cncc(-c3ccccc3)c2ccn1Cc1cn2cc(CNc3cc(N4CCOCC4)ccn3)ccc2n1 [Compound 102, 2-{[6-({[4-(morpholin-4-yl)pyridin-2-yl]amino}methyl)imidazo[1,2-a]pyridin-2-yl]methyl}-5-phenyl-1,2-dihydro-2,7-naphthyridin-1-one] | 1 to 10 | 
12 | O=c1c2cncc(-c3ccccc3)c2ccn1Cc1cn2cc(-c3cc(N4CCC4)ccn3)ccc2n1 [Compound 105, 2-((6-(4-(azetidin-1-yl)pyridin-2-yl)imidazo[1,2-a]pyridin-2-yl)methyl)-5-phenyl-2,7-naphthyridin-1(2H)-one] |  | 1 to 10
13 | O=c1c2cncc(N3CC4(CCC4)C3)c2ccn1Cc1cn2cc(CNCC3CC(F)C3)ccc2n1 (centres unmarked) [Compound 110, 2-((6-((((3-fluorocyclobutyl)methyl)amino)methyl)imidazo [1,2-a]pyridin-2-yl)methyl)-5-(2-azaspiro[3.3]heptan-2-yl)-2,7-naphthyridin-1(2H)-one] | 1 to 10 | 
14 | CC1(C)CCN(Cc2ccc3nc(Cn4ccc5c(N6CC7(C6)CC(F)(F)C7)cncc5c4=O)cn3c2)CC1 [Compound 111, 5-{6,6-difluoro-2-azaspiro[3.3]heptan-2-yl}-2-({6-[(4,4-dimethylpiperidin-1-yl)methyl]imidazo[1,2-a]pyridin-2-yl}methyl)-1,2-dihydro-2,7-naphthyridin-1-one] | > 10 | 
15 | CC1(C)CCN(Cc2ccc3nc(Cn4ccc5c(N6CCC(F)(F)CC6)cncc5c4=O)cn3c2)CC1 [Compound 112, 5-(4,4-difluoropiperidin-1-yl)-2-({6-[(4,4-dimethylpiperidin-1-yl)methyl]imidazo[1,2-a]pyridin-2-yl}methyl)-1,2-dihydro-2,7-naphthyridin-1-one] | 1 to 10 | 
16 | CC1(C)CCN(Cc2ccc3nc(Cn4ccc5c(N6CCOCC6)cncc5c4=O)cn3c2)CC1 [Compound 113, 2-({6-[(4,4-dimethylpiperidin-1-yl)methyl]imidazo[1,2-a]pyridin-2-yl}methyl)-5-(morpholin-4-yl)-1,2-dihydro-2,7-naphthyridin-1-one] | 1 to 10 | 
17 | CC1(C)CCN(Cc2ccc3nc(Cn4ccc5c(N6CC7(CCOCC7)C6)cncc5c4=O)cn3c2)CC1 [Compound 114, 2-({6-[(4,4-dimethylpiperidin-1-yl)methyl]imidazo[1,2-a]pyridin-2-yl}methyl)-5-{7-oxa-2-azaspiro[3.5]nonan-2-yl}-1,2-dihydro-2,7-naphthyridin-1-one] | 1 to 10 | 
18 | CC1(C)CCN(Cc2ccc3nc(Cn4ccc5c(N6CC7COCC7C6)cncc5c4=O)cn3c2)CC1 (centres unmarked) [Compound 117, 2-({6-[(4,4-dimethylpiperidin-1-yl)methyl]imidazo[1,2-a]pyridin-2-yl}methyl)-5-{hexahydro-1H-furo[3,4-c]pyrrol-5-yl}-1,2-dihydro-2,7-naphthyridin-1-one] | > 10 | 

Second part, led by results:

Row | IC50 [1] [µM] | SMILES | IC50 (Homo sapiens, MOLM-13, 72 h) [µM]
19 | 1 to 10 | O=c1c2cncc(-c3ccccc3)c2ccn1Cc1cn2cc(CNCc3ccccc3)ccc2n1 [Compound 72, 2-((6-((benzylamino)methyl)imidazo[1,2-a]pyridin-2-yl)methyl)-5-phenyl-2,7-naphthyridin-1(2H)-one] | 
20 | 1 to 10 | CC(C)(C)CNCc1ccc2nc(Cn3ccc4c(-c5ccccc5)cncc4c3=O)cn2c1 [Compound 73, 2-((6-((neopentylamino)methyl)imidazo[1,2-a]pyridin-2-yl)methyl)-5-phenyl-2,7-naphthyridin-1(2H)-one] | 
21 | 1 to 10 | O=c1c2cncc(-c3ccccc3)c2ccn1Cc1cn2cc(CNCC3CCCC3)ccc2n1 [Compound 76, 2-((6-(((cyclopentylmethyl)amino)methyl)imidazo[1,2-a]pyridin-2-yl)methyl)-5-phenyl-2,7-naphthyridin-1(2H)-one] | 
22 | 1 to 10 | O=c1c2cncc(-c3ccccc3)c2ccn1Cc1cn2cc(CNCC3CCCCC3)ccc2n1 [Compound 77, 2-((6-(((cyclohexylmethyl)amino)methyl)imidazo[1,2-a]pyridin-2-yl)methyl)-5-phenyl-2,7-naphthyridin-1(2H)-one] | 
23 | 1 to 10 | O=c1c2cncc(-c3ccccc3)c2ccn1Cc1cn2cc(CNCC3CC(F)C3)ccc2n1 (centres unmarked) [Compound 79, 2-((6-((((3-fluorocyclobutyl)methyl)amino)methyl)imidazo[1,2-a]pyridin-2-yl)methyl)-5-phenyl-2,7-naphthyridin-1(2H)-one] | 
24 | 1 to 10 | O=c1c2cncc(-c3ccccc3)c2ccn1Cc1cn2cc(CNC3(c4ccccc4)CCC3)ccc2n1 [Compound 80, 5-phenyl-2-((6-(((1-phenylcyclobutyl)amino)methyl)imidazo[1,2-a]pyridin-2-yl)methyl)-2,7-naphthyridin-1(2H)-one] | 
25 | 1 to 10 | CC(C)(NCc1ccc2nc(Cn3ccc4c(-c5ccccc5)cncc4c3=O)cn2c1)c1ccccc1 [Compound 81, 5-phenyl-2-((6-(((2-phenylpropan-2-yl)amino)methyl)imidazo[1,2-a]pyridin-2-yl)methyl)-2,7-naphthyridin-1(2H)-one] | 
26 | 1 to 10 | O=c1c2cncc(-c3ccccc3)c2ccn1Cc1cn2cc(CNC(CO)c3ccccc3)ccc2n1 (centres unmarked) [Compound 82, 2-((6-(((2-hydroxy-1-phenylethyl)amino)methyl)imidazo[1,2-a]pyridin-2-yl)methyl)-5-phenyl-2,7-naphthyridin-1(2H)-one] | 
27 | 1 to 10 | CC1CCC(CNCc2ccc3nc(Cn4ccc5c(-c6ccccc6)cncc5c4=O)cn3c2)CC1 (centres unmarked) [Compound 85, 2-((6-((((4-methylcyclohexyl)methyl)amino)methyl)imidazo[1,2-a]pyridin-2-yl)methyl)-5-phenyl-2,7-naphthyridin-1(2H)-one] | 
28 | 1 to 10 | Cc1ccc(CNCc2ccc3nc(Cn4ccc5c(-c6ccccc6)cncc5c4=O)cn3c2)cc1 [Compound 86, 2-((6-(((4-methylbenzyl)amino)methyl)imidazo[1,2-a]pyridin-2-yl)methyl)-5-phenyl-2,7-naphthyridin-1(2H)-one] | 
29 | 1 to 10 | CC(=O)Nc1ccc(-c2cncc3c(=O)n(Cc4cn5cc(CNCC6CC(F)C6)ccc5n4)ccc23)cn1 (centres unmarked) [Compound 87, N-(5-(7-((6-((((3-fluorocyclobutyl)methyl)amino)methyl)imidazo[1,2-a]pyridin-2-yl)methyl)-8-oxo-7,8-dihydro-2,7-naphthyridin-4-yl)pyridin-2-yl)acetamide] | 
30 | 1 to 10 | O=c1c2cncc(C3CC3)c2ccn1Cc1cn2cc(CNCC3CCC3)ccc2n1 [Compound 88, 2-((6-(((cyclobutylmethyl)amino)methyl)imidazo[1,2-a]pyridin-2-yl)methyl)-5-cyclopropyl-2,7-naphthyridin-1(2 h)-one] | 
31 | 1 to 10 | O=c1c2cncc(N3CCC3)c2ccn1Cc1cn2cc(CNCC3CC(F)C3)ccc2n1 (centres unmarked) [Compound 89, 5-(azetidin-1-yl)-2-((6-((((3-fluorocyclobutyl)methyl)-amino)methyl)imidazo[1,2-a]pyridin-2-yl)methyl)-2,7-naphthyridin-1(2H)-one] | 
32 | 1 to 10 | CCNc1ccc2ccc(-c3ccc(Cn4ccc5c(-c6ccccc6)cncc5c4=O)cc3)cc2n1 [Compound 93, 2-(4-(2-(ethylamino)quinolin-7-yl)benzyl)-5-phenyl-2,7-naphthyridin-1(2H)-one] | 
